What was measured:
[1] = biological target: D(1B) dopamine receptor (Homo sapiens) (UniProt P21918); settings: Compound concentration 10.0 uM
[2] = biological target: MAP kinase-interacting serine/threonine-protein kinase 1 (Homo sapiens) (UniProt Q9BUB5)
[3] = biological target: RAF proto-oncogene serine/threonine-protein kinase (Homo sapiens) (UniProt P04049)
[4] = biological target: Cyclin-dependent kinase 4 (Homo sapiens) (UniProt P11802)
[5] = biological target: Serine/threonine-protein kinase PRP4 homolog (Homo sapiens) (UniProt Q13523)
Serine/threonine-protein kinase PRP4 homolog (Homo sapiens), sequence (Q13523 whole entry): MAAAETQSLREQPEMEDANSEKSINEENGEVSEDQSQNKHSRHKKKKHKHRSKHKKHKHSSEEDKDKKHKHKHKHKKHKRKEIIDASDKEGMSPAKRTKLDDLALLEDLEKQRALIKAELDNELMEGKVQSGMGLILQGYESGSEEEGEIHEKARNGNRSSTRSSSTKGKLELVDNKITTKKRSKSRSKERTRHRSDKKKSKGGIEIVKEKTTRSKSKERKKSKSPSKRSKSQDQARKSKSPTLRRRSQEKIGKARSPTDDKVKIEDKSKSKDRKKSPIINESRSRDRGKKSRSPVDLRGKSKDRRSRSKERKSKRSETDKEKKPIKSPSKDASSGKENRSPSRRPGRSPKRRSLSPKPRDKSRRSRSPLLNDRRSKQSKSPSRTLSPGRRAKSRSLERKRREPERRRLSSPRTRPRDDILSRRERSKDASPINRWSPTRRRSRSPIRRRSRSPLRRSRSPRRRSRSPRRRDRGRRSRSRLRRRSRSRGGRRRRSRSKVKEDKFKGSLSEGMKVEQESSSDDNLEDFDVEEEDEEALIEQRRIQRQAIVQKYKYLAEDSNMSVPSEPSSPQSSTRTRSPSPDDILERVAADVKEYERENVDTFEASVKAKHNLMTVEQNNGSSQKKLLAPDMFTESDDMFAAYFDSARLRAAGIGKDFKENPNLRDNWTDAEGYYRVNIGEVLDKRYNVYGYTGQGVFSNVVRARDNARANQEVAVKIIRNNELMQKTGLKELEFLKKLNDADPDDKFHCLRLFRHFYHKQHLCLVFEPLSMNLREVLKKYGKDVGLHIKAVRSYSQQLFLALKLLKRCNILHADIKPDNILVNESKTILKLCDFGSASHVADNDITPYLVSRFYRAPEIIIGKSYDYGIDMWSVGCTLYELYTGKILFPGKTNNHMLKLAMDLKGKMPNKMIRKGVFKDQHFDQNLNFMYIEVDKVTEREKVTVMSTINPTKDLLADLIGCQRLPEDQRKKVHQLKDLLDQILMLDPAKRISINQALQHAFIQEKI

[6] = biological target: Cyclin-dependent kinase 14 (Homo sapiens) (UniProt O94921)
Cyclin-dependent kinase 14 (Homo sapiens), sequence (O94921 whole entry): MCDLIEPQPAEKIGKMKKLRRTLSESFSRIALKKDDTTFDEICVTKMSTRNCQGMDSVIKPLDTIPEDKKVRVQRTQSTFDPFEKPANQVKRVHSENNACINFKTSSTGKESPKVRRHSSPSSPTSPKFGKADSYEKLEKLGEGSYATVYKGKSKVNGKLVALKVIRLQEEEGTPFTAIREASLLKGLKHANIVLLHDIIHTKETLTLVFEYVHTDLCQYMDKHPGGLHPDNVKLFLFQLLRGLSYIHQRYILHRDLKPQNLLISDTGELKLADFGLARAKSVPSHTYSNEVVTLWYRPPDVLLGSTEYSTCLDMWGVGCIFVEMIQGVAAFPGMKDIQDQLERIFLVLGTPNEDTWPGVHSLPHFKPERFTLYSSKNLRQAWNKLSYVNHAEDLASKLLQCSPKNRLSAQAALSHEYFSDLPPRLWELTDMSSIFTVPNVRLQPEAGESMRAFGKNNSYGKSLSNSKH

[7] = biological target: T1, Serine/threonine-protein kinase D3 (Homo sapiens) (UniProt O94806)
T1 sequence (whole entry): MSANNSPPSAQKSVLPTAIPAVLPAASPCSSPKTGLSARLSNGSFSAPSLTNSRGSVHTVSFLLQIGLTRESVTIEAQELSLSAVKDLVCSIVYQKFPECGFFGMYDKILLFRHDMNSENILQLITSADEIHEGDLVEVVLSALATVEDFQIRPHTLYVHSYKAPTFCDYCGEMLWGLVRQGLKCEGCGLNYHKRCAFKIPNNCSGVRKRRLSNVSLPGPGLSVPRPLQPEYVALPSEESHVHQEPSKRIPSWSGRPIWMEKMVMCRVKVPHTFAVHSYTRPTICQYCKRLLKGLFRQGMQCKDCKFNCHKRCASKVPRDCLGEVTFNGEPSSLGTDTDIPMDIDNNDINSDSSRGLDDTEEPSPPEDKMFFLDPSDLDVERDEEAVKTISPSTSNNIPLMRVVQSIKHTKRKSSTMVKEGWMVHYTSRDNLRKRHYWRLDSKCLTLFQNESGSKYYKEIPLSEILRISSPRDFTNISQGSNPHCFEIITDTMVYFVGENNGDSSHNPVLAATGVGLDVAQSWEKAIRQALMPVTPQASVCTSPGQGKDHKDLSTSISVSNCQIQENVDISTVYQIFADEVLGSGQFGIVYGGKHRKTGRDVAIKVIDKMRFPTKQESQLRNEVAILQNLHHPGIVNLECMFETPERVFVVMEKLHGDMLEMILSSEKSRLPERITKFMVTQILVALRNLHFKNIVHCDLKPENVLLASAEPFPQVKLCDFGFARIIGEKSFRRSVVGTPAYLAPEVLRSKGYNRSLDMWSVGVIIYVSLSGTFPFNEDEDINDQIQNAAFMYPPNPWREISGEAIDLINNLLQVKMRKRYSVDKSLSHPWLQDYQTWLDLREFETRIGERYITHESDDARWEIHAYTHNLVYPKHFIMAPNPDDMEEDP

[8] = biological target: T2, Serine/threonine-protein kinase TAO2 (Homo sapiens) (UniProt Q9UL54)
T2 sequence (whole entry): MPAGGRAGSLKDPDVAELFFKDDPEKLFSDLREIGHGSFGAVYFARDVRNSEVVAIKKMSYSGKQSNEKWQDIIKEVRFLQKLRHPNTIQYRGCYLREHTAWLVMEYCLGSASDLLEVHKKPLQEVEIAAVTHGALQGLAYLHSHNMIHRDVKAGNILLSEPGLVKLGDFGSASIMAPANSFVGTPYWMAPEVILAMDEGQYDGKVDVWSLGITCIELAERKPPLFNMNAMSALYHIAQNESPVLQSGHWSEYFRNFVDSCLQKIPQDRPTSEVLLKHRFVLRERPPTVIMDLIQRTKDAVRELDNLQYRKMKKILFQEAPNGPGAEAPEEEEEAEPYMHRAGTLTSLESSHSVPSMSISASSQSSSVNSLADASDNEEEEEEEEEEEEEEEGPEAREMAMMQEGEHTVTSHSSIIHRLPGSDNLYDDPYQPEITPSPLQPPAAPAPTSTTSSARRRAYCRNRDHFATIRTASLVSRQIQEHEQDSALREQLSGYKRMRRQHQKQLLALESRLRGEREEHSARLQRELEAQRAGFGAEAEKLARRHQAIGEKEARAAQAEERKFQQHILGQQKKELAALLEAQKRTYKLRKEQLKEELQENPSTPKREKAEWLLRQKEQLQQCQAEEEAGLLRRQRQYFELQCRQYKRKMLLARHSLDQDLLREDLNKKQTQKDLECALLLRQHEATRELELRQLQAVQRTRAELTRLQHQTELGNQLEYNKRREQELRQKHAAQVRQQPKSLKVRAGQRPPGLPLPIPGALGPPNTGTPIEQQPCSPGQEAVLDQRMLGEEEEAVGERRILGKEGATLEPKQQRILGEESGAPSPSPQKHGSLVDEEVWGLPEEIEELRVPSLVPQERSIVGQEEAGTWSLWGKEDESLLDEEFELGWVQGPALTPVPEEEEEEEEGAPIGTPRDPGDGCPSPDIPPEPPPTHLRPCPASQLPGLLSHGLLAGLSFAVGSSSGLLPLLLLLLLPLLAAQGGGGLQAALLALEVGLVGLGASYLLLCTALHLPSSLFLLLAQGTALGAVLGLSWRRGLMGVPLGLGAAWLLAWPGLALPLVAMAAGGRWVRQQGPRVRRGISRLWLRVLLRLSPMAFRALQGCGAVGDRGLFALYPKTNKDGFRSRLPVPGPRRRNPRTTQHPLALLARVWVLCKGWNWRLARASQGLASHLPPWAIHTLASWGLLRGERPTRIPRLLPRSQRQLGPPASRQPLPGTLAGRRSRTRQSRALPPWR

[9] = biological target: Receptor tyrosine-protein kinase erbB-2 (Homo sapiens) (UniProt P04626)
Receptor tyrosine-protein kinase erbB-2 (Homo sapiens), sequence (P04626 whole entry): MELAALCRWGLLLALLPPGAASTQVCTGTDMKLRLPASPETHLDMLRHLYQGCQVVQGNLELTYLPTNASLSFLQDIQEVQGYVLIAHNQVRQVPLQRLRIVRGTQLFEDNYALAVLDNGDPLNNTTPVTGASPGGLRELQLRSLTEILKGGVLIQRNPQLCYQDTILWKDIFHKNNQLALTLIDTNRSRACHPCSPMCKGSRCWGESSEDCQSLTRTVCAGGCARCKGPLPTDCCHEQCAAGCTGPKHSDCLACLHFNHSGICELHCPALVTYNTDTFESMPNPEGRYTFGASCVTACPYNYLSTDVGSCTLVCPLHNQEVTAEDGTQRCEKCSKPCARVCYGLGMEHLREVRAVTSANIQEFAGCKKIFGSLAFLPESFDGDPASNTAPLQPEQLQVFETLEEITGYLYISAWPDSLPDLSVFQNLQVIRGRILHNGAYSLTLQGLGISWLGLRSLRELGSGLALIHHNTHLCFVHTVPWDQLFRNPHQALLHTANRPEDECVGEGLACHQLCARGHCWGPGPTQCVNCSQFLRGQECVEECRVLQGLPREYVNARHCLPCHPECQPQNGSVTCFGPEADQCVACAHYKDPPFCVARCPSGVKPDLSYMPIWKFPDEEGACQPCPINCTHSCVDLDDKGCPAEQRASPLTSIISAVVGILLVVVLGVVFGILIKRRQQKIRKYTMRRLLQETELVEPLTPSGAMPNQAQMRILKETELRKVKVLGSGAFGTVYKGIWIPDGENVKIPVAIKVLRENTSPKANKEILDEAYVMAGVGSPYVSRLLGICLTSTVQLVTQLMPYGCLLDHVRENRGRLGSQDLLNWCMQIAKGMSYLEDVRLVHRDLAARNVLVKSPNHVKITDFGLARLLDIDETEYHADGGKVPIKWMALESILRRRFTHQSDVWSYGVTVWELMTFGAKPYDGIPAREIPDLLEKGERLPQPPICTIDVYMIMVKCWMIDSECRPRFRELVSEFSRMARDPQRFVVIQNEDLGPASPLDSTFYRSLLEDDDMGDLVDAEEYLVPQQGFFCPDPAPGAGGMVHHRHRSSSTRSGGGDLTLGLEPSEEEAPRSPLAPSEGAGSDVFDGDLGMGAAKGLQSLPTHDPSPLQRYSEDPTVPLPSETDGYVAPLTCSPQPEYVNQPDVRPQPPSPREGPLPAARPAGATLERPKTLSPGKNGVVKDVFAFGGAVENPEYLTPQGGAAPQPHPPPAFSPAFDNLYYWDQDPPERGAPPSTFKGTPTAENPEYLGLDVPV

[10] = biological target: T3, Alpha-2A adrenergic receptor (Homo sapiens) (UniProt P08913); settings: Compound concentration 10.0 uM
T3 sequence (whole entry): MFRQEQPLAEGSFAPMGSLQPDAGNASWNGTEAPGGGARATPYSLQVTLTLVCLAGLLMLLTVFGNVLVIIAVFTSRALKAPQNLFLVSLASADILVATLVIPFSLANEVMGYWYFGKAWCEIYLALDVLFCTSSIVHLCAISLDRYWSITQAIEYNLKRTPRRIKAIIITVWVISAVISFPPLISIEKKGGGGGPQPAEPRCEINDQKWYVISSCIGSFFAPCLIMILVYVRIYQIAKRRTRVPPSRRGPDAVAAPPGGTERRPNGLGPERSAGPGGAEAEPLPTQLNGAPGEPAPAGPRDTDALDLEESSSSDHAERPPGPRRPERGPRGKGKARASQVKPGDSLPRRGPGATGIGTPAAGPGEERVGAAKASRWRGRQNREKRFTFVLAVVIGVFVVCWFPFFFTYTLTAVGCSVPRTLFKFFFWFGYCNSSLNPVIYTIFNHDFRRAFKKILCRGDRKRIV

[11] = Compound concentration 1000.0 nM
[12] = Compound concentration 100.0 nM

MAP kinase-interacting serine/threonine-protein kinase 1 (Homo sapiens), sequence (Q9BUB5 whole entry, looked up): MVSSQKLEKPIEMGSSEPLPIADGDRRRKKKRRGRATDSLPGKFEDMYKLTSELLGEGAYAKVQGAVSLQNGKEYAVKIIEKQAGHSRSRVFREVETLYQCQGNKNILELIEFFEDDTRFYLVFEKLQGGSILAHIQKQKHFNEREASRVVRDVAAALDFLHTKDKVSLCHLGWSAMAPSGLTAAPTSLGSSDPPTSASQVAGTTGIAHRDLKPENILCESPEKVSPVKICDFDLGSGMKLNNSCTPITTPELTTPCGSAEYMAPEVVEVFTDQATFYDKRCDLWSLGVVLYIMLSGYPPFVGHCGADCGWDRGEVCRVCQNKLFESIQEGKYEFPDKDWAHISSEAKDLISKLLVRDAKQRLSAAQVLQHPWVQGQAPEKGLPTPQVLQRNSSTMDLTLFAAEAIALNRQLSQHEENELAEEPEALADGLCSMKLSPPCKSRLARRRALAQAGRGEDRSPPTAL
Cyclin-dependent kinase 4 (Homo sapiens), sequence (P11802 whole entry): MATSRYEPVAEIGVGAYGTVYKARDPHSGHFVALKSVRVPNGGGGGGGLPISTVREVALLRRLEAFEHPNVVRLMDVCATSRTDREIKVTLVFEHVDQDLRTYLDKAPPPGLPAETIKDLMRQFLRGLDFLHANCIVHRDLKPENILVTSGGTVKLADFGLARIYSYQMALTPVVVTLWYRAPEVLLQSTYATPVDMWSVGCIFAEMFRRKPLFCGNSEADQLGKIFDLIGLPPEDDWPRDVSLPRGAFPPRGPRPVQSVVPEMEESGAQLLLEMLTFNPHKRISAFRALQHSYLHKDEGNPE
RAF proto-oncogene serine/threonine-protein kinase (Homo sapiens), sequence (P04049 whole entry): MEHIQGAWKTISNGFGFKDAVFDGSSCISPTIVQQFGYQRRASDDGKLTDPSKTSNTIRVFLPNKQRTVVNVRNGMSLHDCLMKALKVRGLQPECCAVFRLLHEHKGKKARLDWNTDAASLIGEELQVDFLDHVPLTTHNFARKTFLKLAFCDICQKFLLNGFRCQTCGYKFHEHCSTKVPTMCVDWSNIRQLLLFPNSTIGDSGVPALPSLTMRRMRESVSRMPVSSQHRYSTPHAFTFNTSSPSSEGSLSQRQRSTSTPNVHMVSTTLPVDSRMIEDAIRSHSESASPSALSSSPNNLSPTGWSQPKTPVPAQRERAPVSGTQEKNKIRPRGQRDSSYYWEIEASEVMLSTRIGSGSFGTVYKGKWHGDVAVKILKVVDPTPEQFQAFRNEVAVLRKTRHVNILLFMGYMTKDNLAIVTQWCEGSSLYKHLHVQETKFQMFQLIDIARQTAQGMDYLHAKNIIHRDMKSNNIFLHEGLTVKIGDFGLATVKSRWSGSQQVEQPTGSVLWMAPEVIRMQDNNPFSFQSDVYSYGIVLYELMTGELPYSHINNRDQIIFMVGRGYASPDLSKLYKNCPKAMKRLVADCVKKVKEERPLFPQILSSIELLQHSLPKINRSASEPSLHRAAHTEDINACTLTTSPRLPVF
D(1B) dopamine receptor (Homo sapiens), sequence (P21918 whole entry): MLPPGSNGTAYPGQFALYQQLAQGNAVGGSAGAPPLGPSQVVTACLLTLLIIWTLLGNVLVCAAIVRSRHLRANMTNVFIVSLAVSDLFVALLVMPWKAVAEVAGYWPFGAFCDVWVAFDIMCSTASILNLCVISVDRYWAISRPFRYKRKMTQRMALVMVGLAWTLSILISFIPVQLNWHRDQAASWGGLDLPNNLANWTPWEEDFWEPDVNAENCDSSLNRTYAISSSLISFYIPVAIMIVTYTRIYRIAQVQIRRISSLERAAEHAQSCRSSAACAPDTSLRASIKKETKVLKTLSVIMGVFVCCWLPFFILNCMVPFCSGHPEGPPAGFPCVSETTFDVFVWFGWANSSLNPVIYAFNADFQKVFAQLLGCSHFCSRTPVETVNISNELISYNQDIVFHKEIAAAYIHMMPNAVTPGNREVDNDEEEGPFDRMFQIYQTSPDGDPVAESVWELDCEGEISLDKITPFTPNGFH

C[C@@H]1CN(c2cc(-c3nn(C)c4ccc(OC5(C)CC5)cc34)ncn2)C[C@H](C)O1 [MLi-2-NC]
inactive: inhibition [1] 3.61% | residual activity [2, 11] 79% | residual activity [3, 11] 100% | residual activity [4, 11] 91% | residual activity [5, 11] 100% | residual activity [6, 11] 100% | residual activity [7, 11] 64% | residual activity [8, 11] 80% | residual activity [9, 11] 80% | inhibition [10] 12.9%

C[C@@H]1CN(c2cc(-c3n[nH]c4ccc(OC5(C)CC5)cc34)ncn2)C[C@H](C)O1 [MLi-2]
inactive: inhibition [1] 16.1% | residual activity [2, 12] 67% | residual activity [3, 12] 100% | residual activity [4, 12] 71% | residual activity [5, 12] 83% | residual activity [6, 12] 100% | residual activity [7, 12] 82% | residual activity [8, 12] 73% | residual activity [9, 12] 77% | inhibition [10] -2.84%
